# Results from patent publication US20110293745A1, “AURORA KINASE INHIBITORS” (SUNESIS PHARMACEUTICALS, INC., priority 2008, published 2011).
# Read-outs that look alike come from different tables or passages of the source.
# Experiments:
# [1] = Humidity-controlled form conversion; format: physicochemical
# Experimental: The samples were monitored each week for a total duration of five weeks. Each sample was tested by XRPD, DSC, TGA, and Karl Fisher analysis.
# [2] = Dynamic Vapor Sorption (DVS); format: physicochemical; settings: for DVS Result (hygroscopicity): Dynamic Vapor Sorption of crystalline form of Compound 1
# Experimental: DVS experiments were carried out on all available forms by first drying the sample at 0% RH and 25° C. until an equilibrium weight was reached or a maximum of four hours. The sample was then subjected to an isothermal (25° C.) adsorption scan from 10 to 90% RH in steps of 10% RH. The sample was allowed to equilibrate to an asymptotic weight at each point for a maximum of four hours. Following adsorption, a desorption scan from […] to 0% RH (at 25° C.) was run in steps of −10% RH again allowing a maximum of four hours for equilibration to an asymptotic weight. The sample was then dried for two hours at 80° C. and the resulting solid analyzed by XRPD.
# [3] = Reslurry of Form A in 20 solvents; format: physicochemical; settings: THF, EtOAc, MeCN, acetone, MEK, IPA, dioxane, MTBE, IPAc, heptane, CH2Cl2, toluene; room temperature, two weeks
# Experimental: Various amounts of solvents were added to each vial to form slurries which were allowed to stir at room temperature for two weeks. The slurries were then filtered with the help of a gentle nitrogen flow. The samples were further dried in vacuo at room temperature for two hours, except the sample from formamide which was dried in vacuo for about 20 hours.
# After two weeks, the samples were filtered and then analyzed by XRPD, DSC, and TGA. Three new forms were found from the slurry studies. These Forms I, K, and L were generated from AcOH, NMP, and DMF, respectively. The slurry samples from other solvents afforded results consistent with the single solvent recrystallizations. […] Forms D, E, G, and H were generated from reslurry experiments in DMA, formamide, methanol, and ethanol, respectively.
# [4] = Experimental: The solvents were chosen based on differences in polarity and functionality and on their classification according to the International Conference on Harmonization (ICH), with preference given to class II and class III solvents. After each addition of solvent, the vials were visually inspected to assess dissolution and further heated to 55° C. to ensure dissolution.
# HCT 116 p53+/+ = assay: In vitro combination, HCS cell count assay (CI50); format: cell-based, human; settings: HCT 116 p53+/+ and p53−/−; dependent on ratios or p53 status
# Experimental: A combination index compares the concentration of compounds dosed in combination required for a given fractional effect to the concentration of single agent compound required to give the same fractional affect. In this application, the fractional effect is EC50.
# The equation above represents the theoretical additive response for two mutually exclusive drugs, and takes into consideration the ratio at which the two compounds are dosed. […].
# […]. High content cell imaging and a cell proliferation assay were used to measure the anti-proliferative effects of the compounds.
# HCT 116 cells transfected with p53 RNAi or a control vector were cultured in DMEM, 10% FBS, and 1× antibiotic/antimycotic. Cells were plated in growth medium in black/clear Falcon® 384-well plates. Cells were treated to assess the effects of p53 status, drug dose ratios, and dose schedules. […]. […] All procedures were performed by a Tecan robotic platform.
# After overnight growth, cells were treated with compound for a total of 72 hours and incubated at 37° C., 5% CO2. Cells were fixed in 4% formaldehyde and stained with 1:4000 dilution of 10 mg/mL Hoechst 33342. HCS images were captured and data analyzed using the Target Activation application, object count per field parameter, on the ArrayScan VTI instrument (Cellomics, Inc.).
smiles,measurement,setting,value
CS(=O)(=O)O.O=C(Nc1cccc(Cl)c1)Nc1ncc(CCNc2ncnc3ccsc23)s1 [A],KF,"[1]; 0% RH, week 1",0.17 Wt % H2O
same,TGA Loss,"[1]; 0% RH, week 1",0.0 Wt %
same,KF,"[1]; 0% RH, week 2",<0.1 Wt % H2O
same,TGA Loss,"[1]; 0% RH, week 2",0.0 Wt %
same,KF,"[1]; 0% RH, week 3",0.11 Wt % H2O
same,TGA Loss,"[1]; 0% RH, week 3",0.0 Wt %
same,KF,"[1]; 0% RH, week 4",<0.1 Wt % H2O
same,TGA Loss,"[1]; 0% RH, week 4",0.0 Wt %
same,KF,"[1]; 0% RH, week 5",0.1 Wt % H2O
same,TGA Loss,"[1]; 0% RH, week 5",0.0 Wt %
same,KF,"[1]; 20% RH, week 1",0.16 Wt % H2O
same,TGA Loss,"[1]; 20% RH, week 1",0.0 Wt %
same,KF,"[1]; 20% RH, week 2",0.12 Wt % H2O
same,TGA Loss,"[1]; 20% RH, week 2",0.0 Wt %
same,KF,"[1]; 20% RH, week 3",0.11 Wt % H2O
same,TGA Loss,"[1]; 20% RH, week 3",0.0 Wt %
same,KF,"[1]; 20% RH, week 4",<0.1 Wt % H2O
same,TGA Loss,"[1]; 20% RH, week 4",0.0 Wt %
same,KF,"[1]; 20% RH, week 5",0.2 Wt % H2O
same,TGA Loss,"[1]; 20% RH, week 5",0.0 Wt %
same,KF,"[1]; 52% RH, week 1",0.29 Wt % H2O
same,TGA Loss,"[1]; 52% RH, week 1",0.0 Wt %
same,KF,"[1]; 52% RH, week 2",0.16 Wt % H2O
same,TGA Loss,"[1]; 52% RH, week 2",0.0 Wt %
same,KF,"[1]; 52% RH, week 3",0.11 Wt % H2O
same,TGA Loss,"[1]; 52% RH, week 3",0.0 Wt %
same,KF,"[1]; 75% RH, week 1",0.12 Wt % H2O
same,TGA Loss,"[1]; 75% RH, week 1",0.0 Wt %
same,KF,"[1]; 75% RH, week 2",0.13 Wt % H2O
same,TGA Loss,"[1]; 75% RH, week 2",0.0 Wt %
same,KF,"[1]; 75% RH, week 3",0.19 Wt % H2O
same,TGA Loss,"[1]; 75% RH, week 3",0.0 Wt %
same,KF,"[1]; 75% RH, week 4",<0.1 Wt % H2O
same,TGA Loss,"[1]; 75% RH, week 4",0.0 Wt %
same,KF,"[1]; 75% RH, week 5",0.3 Wt % H2O
same,TGA Loss,"[1]; 75% RH, week 5",0.0 Wt %
same,KF,"[1]; 95% RH, week 1",1.5 Wt % H2O
same,TGA Loss,"[1]; 95% RH, week 1",0.1 Wt %
same,KF,"[1]; 95% RH, week 2",3.2 Wt % H2O
same,KF,"[1]; 95% RH, week 3",3.7 Wt % H2O
same,KF,"[1]; 95% RH, week 4",3.5 Wt % H2O
same,TGA Loss,"[1]; 95% RH, week 4",1.5 Wt %
same,KF,"[1]; 95% RH, week 5",3.9 Wt % H2O
same,KF,"[1]; starting point, week 0",0.07 Wt % H2O
same,TGA Loss,"[1]; starting point, week 0",0.0 Wt %
CS(=O)(=O)O.O=C(Nc1cccc(Cl)c1)Nc1ncc(CCNc2ncnc3ccsc23)s1 [B],KF,"[1]; 0% RH, week 1",1.4 Wt % H2O
same,KF,"[1]; 0% RH, week 2",3.4 Wt % H2O
same,KF,"[1]; 0% RH, week 3",3.6 Wt % H2O
same,KF,"[1]; 0% RH, week 4",3.0 Wt % H2O
same,KF,"[1]; 0% RH, week 5",3.4 Wt % H2O
same,KF,"[1]; 20% RH, week 1",3.3 Wt % H2O
same,KF,"[1]; 20% RH, week 2",3.7 Wt % H2O
same,KF,"[1]; 20% RH, week 3",3.6 Wt % H2O
same,KF,"[1]; 20% RH, week 4",3.4 Wt % H2O
same,KF,"[1]; 20% RH, week 5",3.5 Wt % H2O
same,KF,"[1]; 52% RH, week 1",3.0 Wt % H2O
same,KF,"[1]; 52% RH, week 2",3.6 Wt % H2O
same,KF,"[1]; 52% RH, week 3",3.7 Wt % H2O
same,KF,"[1]; 52% RH, week 4",3.3 Wt % H2O
same,KF,"[1]; 52% RH, week 5",3.6 Wt % H2O
same,KF,"[1]; 75% RH, week 1",3.4 Wt % H2O
same,KF,"[1]; 75% RH, week 2",3.4 Wt % H2O
same,KF,"[1]; 75% RH, week 3",2.4 Wt % H2O
same,KF,"[1]; 75% RH, week 4",3.3 Wt % H2O
same,KF,"[1]; 95% RH, week 1",3.2 Wt % H2O
same,KF,"[1]; 95% RH, week 2",3.5 Wt % H2O
same,KF,"[1]; 95% RH, week 3",4.6 Wt % H2O
same,TGA Loss,"[1]; 95% RH, week 3",3.2 Wt %
same,KF,"[1]; 95% RH, week 4",3.7 Wt % H2O
same,KF,"[1]; 95% RH, week 5",4.7 Wt % H2O
same,KF,"[1]; starting point, week 0",3.0 Wt % H2O
same,DVS Result (hygroscopicity),[2],"change, low"
CS(=O)(=O)O.O=C(Nc1cccc(Cl)c1)Nc1ncc(CCNc2ncnc3ccsc23)s1 [E],DVS Result (water uptake),[2]; at 90% RH,"change, 8.0 wt wt %"
CS(=O)(=O)O.O=C(Nc1cccc(Cl)c1)Nc1ncc(CCNc2ncnc3ccsc23)s1 [Form A],form conversion under humidity,"[1]; 0, 25, 52, and 75% RH, five weeks",No form conversion
same,form conversion under humidity,"[1]; 95% RH, two weeks",converted to Form B
same,form after reslurry,[3],remained unchanged
same,Approximate Solubility Conc.,"[4]; Solvent AcOH, Temp RT",>17.00 mg/mL
same,Soluble,"[4]; Solvent AcOH, Temp RT",Yes
same,Approximate Solubility Conc.,"[4]; Solvent Acetone, Temp 55",<0.37 mg/mL
same,Soluble,"[4]; Solvent Acetone, Temp 55",No
same,Approximate Solubility Conc.,"[4]; Solvent DCM, Temp 55",<0.43 mg/mL
same,Soluble,"[4]; Solvent DCM, Temp 55",No
same,Approximate Solubility Conc.,"[4]; Solvent DMA, Temp RT",>28.00 mg/mL
same,Soluble,"[4]; Solvent DMA, Temp RT",Yes
same,Approximate Solubility Conc.,"[4]; Solvent DMF, Temp RT",>9.00 mg/mL
same,Soluble,"[4]; Solvent DMF, Temp RT",Yes
same,Approximate Solubility Conc.,"[4]; Solvent Dioxane, Temp 55",<0.28 mg/mL
same,Soluble,"[4]; Solvent Dioxane, Temp 55",No
same,Approximate Solubility Conc.,"[4]; Solvent EtOAc, Temp 55",<0.25 mg/mL
same,Soluble,"[4]; Solvent EtOAc, Temp 55",No
same,Approximate Solubility Conc.,"[4]; Solvent EtOH, Temp 55",~0.63 mg/mL
same,Soluble,"[4]; Solvent EtOH, Temp 55",Yes
same,Approximate Solubility Conc.,"[4]; Solvent Formamide, Temp RT",>16.00 mg/mL
same,Soluble,"[4]; Solvent Formamide, Temp RT",Yes
same,Approximate Solubility Conc.,"[4]; Solvent Heptane, Temp 55",<0.43 mg/mL
same,Soluble,"[4]; Solvent Heptane, Temp 55",No
same,Approximate Solubility Conc.,"[4]; Solvent IPA, Temp 55",<0.30 mg/mL
same,Soluble,"[4]; Solvent IPA, Temp 55",Partially
same,Approximate Solubility Conc.,"[4]; Solvent IPAc, Temp 55",<0.40 mg/mL
same,Soluble,"[4]; Solvent IPAc, Temp 55",No
same,Approximate Solubility Conc.,"[4]; Solvent MEK, Temp 55",<0.48 mg/mL
same,Soluble,"[4]; Solvent MEK, Temp 55",No
same,Approximate Solubility Conc.,"[4]; Solvent MTBE, Temp 55",<0.20 mg/mL
same,Soluble,"[4]; Solvent MTBE, Temp 55",No
same,Approximate Solubility Conc.,"[4]; Solvent MeCN, Temp 55",<0.42 mg/mL
same,Soluble,"[4]; Solvent MeCN, Temp 55",No
same,Approximate Solubility Conc.,"[4]; Solvent MeOH, Temp 55",~0.70 mg/mL
same,Soluble,"[4]; Solvent MeOH, Temp 55",Yes
same,Approximate Solubility Conc.,"[4]; Solvent NMP, Temp RT",>14.00 mg/mL
same,Soluble,"[4]; Solvent NMP, Temp RT",Yes
same,Approximate Solubility Conc.,"[4]; Solvent THF, Temp 55",<0.32 mg/mL
same,Soluble,"[4]; Solvent THF, Temp 55",No
same,Approximate Solubility Conc.,"[4]; Solvent Toluene, Temp 55",<0.33 mg/mL
same,Soluble,"[4]; Solvent Toluene, Temp 55",No
same,Approximate Solubility Conc.,"[4]; Solvent Water, Temp 55",<0.28 mg/mL
same,Soluble,"[4]; Solvent Water, Temp 55",No
same,solubility,"[4]; in DMF, NMP, DMA, formamide, AcOH",soluble
same,solubility,"[4]; in THF, EtOAc, MeCN, acetone, MEK, IPA, water, dioxane, MTBE, IPAc, heptane, CH2Cl2 and toluene",poor solubility
same,solubility,[4]; in methanol and ethanol,sparingly soluble
CS(=O)(=O)O.O=C(Nc1cccc(Cl)c1)Nc1ncc(CCNc2ncnc3ccsc23)s1 [Form B],form conversion under humidity,"[1]; all humidity chambers, five weeks",No form conversion
CS(=O)(=O)O.O=C(Nc1cccc(Cl)c1)Nc1ncc(CCNc2ncnc3ccsc23)s1 [G],DVS Result (hygroscopicity),[2],"change, low"
CC(=O)O[C@@]12CO[C@@H]1C[C@H](O)[C@@]1(C)C(=O)[C@H](O)C3=C(C)[C@@H](OC(=O)[C@H](O)[C@@H](NC(=O)OC(C)(C)C)c4ccccc4)C[C@@](O)([C@@H](OC(=O)c4ccccc4)[C@H]21)C3(C)C [docetaxel],interaction with Compound 1 in cell count assay,HCT 116 p53+/+,conditional synergies
Nc1ccn([C@@H]2O[C@H](CO)[C@@H](O)C2(F)F)c(=O)n1 [gemcitabine],interaction with Compound 1 in cell count assay,HCT 116 p53+/+,conditional synergies
